The values that follow come from patent US20260306525A1, “COMBINATION THERAPY GLUCOCORTICOIDS AND GINSENOSIDE” (FYTAGORAS B.V., priority 2023, published 2026).

One series has as its system fkbp5. Nature of the series: qPCR fkbp5 expression in zebrafish larvae. The series is classed as in vivo, zebrafish (Danio rerio). As to conditions: Example 2, 6 h treatment. The method, then: (§1) […] Groups of 15 larvae were collected in TRIzol reagent (ThermoFisher) and total RNA was isolated using miRNeasy mini kit (Qiagen, Hilden, Germany). For experiments in HeLa cells, cells were seeded in 6 well plates and after treatment, the cells were removed from the wells using TRIzol reagent and mRNA was isolated using miRNeasy mini kit (Qiagen) according to the manufacturer's instructions. The RNA samples were DNAse-treated utilizing the DNA-free™ DNA Removal Kit (ThermoFisher Scientific). The cDNA synthesis was performed using the iScript cDNA synthesis kit (Bio-Rad Laboratories, Hercules, CA, USA) using 1 μg of RNA per sample. For qPCR, 10 μM of forward primer and 10 μM of reverse primer, 12.5 μl of IQ SYBR Green Supermix (Bio-Rad Laboratories), and 2 μl of cDNA were added to the qPCR reaction mixture. […] The qPCR reactions were performed on a MyiQ-single-color real-time PCR detection system (Bio-Rad Laboratories), with initial denaturation for 3 min, 95° C., and 40 cycles of 15 s at 95.5° C., 15 s at 60° C., and 30 s at 72° C. Cycle threshold values (Ct values, i.e. the cycle numbers at which a threshold value of the fluorescence intensity was reached) were determined for each sample. The gene expression level for each sample was normalized using the expression of ppial (peptidylprolyl isomerase Ab (cyclophilin A)) for zebrafish samples, and 18S rRNA for human cells. The fold change per sample (compared to the respective control group) was calculated using the […]Ct method.
(§2) […] Per sample, groups of 15 larvae were collected in TRIzol reagent (Thermo Fisher Scientific, Waltham, MA, USA), and total RNA was isolated using the miRNeasy mini kit (Qiagen, Hilden, Germany). For similar experiments in Hela cells, cells were seeded in 6 well plates, and after 6 h of chemical treatment, the cells were removed from the wells using TRIzol reagent, and total RNA was isolated using the miRNeasy mini kit according to the manufacturer's instructions. The RNA samples were DNAse-treated utilizing the DNA-free™ DNA Removal Kit (Thermo Fisher Scientific). The cDNA synthesis was performed using the iScript cDNA synthesis kit (Bio-Rad Laboratories, Hercules, CA, USA) using 1 μg of RNA per sample. For the PCR reactions, 10 μM of forward and 10 μM of reverse primer, 12.5 μl of iQ SYBR Green Supermix (Bio-Rad), and 2 μl of cDNA were added to the qPCR reaction mixture. […] The reactions were performed on a MyiQ-single-color real-time PCR detection system (Bio-Rad Laboratories) with initial denaturation for 3 min at 95° C. and 40 cycles of 15 s at 95.5° C., 15 s at 60° C., and 30 s at 72° C. Cycle threshold values (Ct values, i.e. the cycle numbers at which a threshold value of the fluorescence intensity was reached) were determined for each sample. The gene expression level for each sample was normalized using the expression of ppial (peptidylprolyl isomerase Ab (cyclophilin A)) for zebrafish samples, 18S rRNA for human cells. The fold change per sample (compared to the respective control group) was calculated using the ΔΔCt method.
In general terms: Quantitative PCR measures a nucleic acid by following its amplification.

A further series relates to pck1. The experiment in a line: qPCR pck1 expression in zebrafish larvae. Type of series: in vivo, zebrafish (Danio rerio). The note with it: Example 2, 6 h treatment. The method, then: as §1, §2
For another series, the system named is gr. The experiment in a line: Gr transactivation activity in Tg(9xGCRE-HSV.UI23:EGFP)ia20 reporter larvae. The series is classed as in vivo, zebrafish (Danio rerio). The note with it: Example 2, 24 h, 3 dpf. The method, then: To investigate the Gr transactivation activity in zebrafish larvae, the Tg(9xGCRE-HSV.UI23:EGFP)^ia20 reporter line was used, which expresses enhanced green fluorescent protein (EGFP) under the control of a promoter containing an array of nine GREs. […] The integrated intensity of the EGFP signal in the larvae was determined using ImageJ software.
To investigate the Gr transactivation activity in zebrafish larvae, the Tg(9xGCRE-HSV.UI23:EGFP^ia20) reporter line was used, which expresses enhanced green fluorescent protein (EGFP) under the control of a promoter containing an array of nine GREs. […] The integrated intensity of the EGFP signal in the larvae was determined using ImageJ software.

The subject of series [1] is zebrafish larvae. The experiment in a line: larval body length. The note with it: Example 2, 5 dpf.
Experimental: (§3) In experiments in which the length of regenerated tail fin tissue after wounding, or the larval body length, was used as a readout, chemical treatments were started at 2 hours post-fertilization (hpf) and continued until 5 dpf, as indicated (15 larvae per treatment group). During this period, solutions were refreshed daily. For the regeneration experiments, tail fins were amputated at 2 dpf. At 5 dpf, larvae were fixed overnight in 4% PFA at 4° C. For determination of the larval length and the regeneration of the tail fins, larvae were imaged using a LeicaMZ16FA fluorescence stereomicroscope supported by LAS 3.7 software. The length of the entire larva or the newly grown tissue was measured using ImageJ software. The newly grown tissue can be visually distinguished from the old tissue, enabling precise measurement of its length.
In series [2] the test system is zebrafish larvae. The experiment in a line: tail fin regeneration assay. The note with it: for tissue regeneration of tail fin: Example 2, amputation at 2 dpf, read at 5 dpf.
Experimental: as §3
Series [3] relates to zebrafish larvae. The experiment in a line: whole-body glucose measurement of zebrafish larvae. The note with it: 5 dpf; for whole-body glucose level: Example 2, non-wounded.
Experimental: In each experiment, three biological replicates were used for each treatment group, and the colorimetric assay was performed using technical duplicates.
Tail fin wounding were performed at 2 days post-fertilization (dpf). At 5 dpf, the larvae (15 per sample) were placed in egg water for 1 h and collected in an Eppendorf tube, washed in egg water (3 times for 10 min). Subsequently, 100 μL of ice-cold glucose buffer was added to each sample, and the larvae were homogenized using a BulletBlender® for 3 min at 8,000 rpm. The homogenates were then centrifuged at 4° C. for 8 min at 11,000 rpm and the supernatant was stored at −20° C. Whole-body glucose concentrations were determined using a Glucose Colorimetric Assay kit (Cayman Chemical, Ann Arbor, MI, USA), according to the manufacturer's instructions. In each experiment, three biological replicates were used for each treatment group, and the colorimetric assay was performed using technical duplicates.
For series [4], the system named is zebrafish larvae. Nature of the series: whole-body cortisol measurement of zebrafish larvae (ELISA). As to conditions: for whole-body cortisol level: Example 2, non-wounded.
Experimental: Ethyl acetate was added to the homogenate. The homogenates were then centrifuged at 4° C. for 8 min at 11,000 rpm and the supernatant was collected and vaporized. A volume of 150 μl of 0.2% Bovine serum albumin (Sigma-Aldrich) dissolved in PBS was added to the samples and frozen. Whole-body cortisol levels of the zebrafish larvae were determined by ELISA (Demeditec Diagnostics GmbH, Kiel-Wellsee, Germany), following the manufacturer's instructions. In each experiment, three biological replicates were used for each treatment group, and the ELISA was performed using technical duplicates.
Tail fin wounding were performed at 2 days post-fertilization (dpf). At 96hpf, the treatments were stopped, and larvae were incubated in egg water until 5 dpf to avoid cross-reactivity between the compounds and the cortisol antibody used in the ELISA. At dpf, the larvae were collected in an Eppendorf tube (30 larvae per sample), and 100 μl of ice-cold egg water was added. After the excess water had been taken out, the samples were glaciated in ethanol (EtOH)/dry-ice bath. Subsequently, the larvae were homogenized using a BulletBlender® for 3 min at 8,000 rpm. Ethyl acetate was added to the homogenate. The homogenates were then centrifuged at 4° C. for 8 min at 11,000 rpm, and the supernatant was collected and vaporized. A volume of 150 μl of 0.2% bovine serum albumin (Sigma-Aldrich) dissolved in PBS was added to the samples and frozen. Whole-body cortisol levels of the zebrafish larvae were determined using a Cortisol free in Saliva ELISA kit (Demeditec Diagnostics GmbH, Kiel-Wellsee, Germany), following the manufacturer's instructions. In each experiment, three biological replicates were used for each treatment group, and the ELISA was performed using technical duplicates.

`CC(C)=CCC[C@](C)(O[C@@H]1O[C@H](CO)[C@@H](O)[C@H](O)[C@H]1O)[C@H]1CC[C@]2(C)[C@@H]1[C@H](O)C[C@@H]1[C@@]3(C)CC[C@H](O)C(C)(C)[C@@H]3[C@@H](O)C[C@]12C` [F1]: the fkbp5 expression entry in the series with fkbp5 is recorded as “did not increase the expression”. In addition, the pck1 expression result with pck1 is “did not increase the expression”. Also, the “GFP fluorescence intensity (Gr transactivation)” value in the series on gr is “none of the ginsenosides PPT, F1, Rh1, and Rg1 altered the fluorescence intensity”. Further, the larval length entry in the series on zebrafish larvae [1] is “did not show any side effects”. Further, the “tissue regeneration of tail fin” value with zebrafish larvae [2] is given as “did not show any side effects”. For the same compound, the “tissue regeneration upon wounding” value in the series on zebrafish larvae [2] (Example 2, wounded at 2 dpf (second statement on FIG. 8F)) was “minor effect on the cortisol level and on tissue regeneration”. Also, in the series with zebrafish larvae [2] (Example 2, wounded, with MZ31), the “tissue regeneration effect in presence of Gba2 inhibitor MZ31” value is recorded as “These latter effects were Gba2-dependent”. The whole-body glucose level entry in the series on zebrafish larvae [3] was “did not show any side effects”. The “whole-body glucose level upon wounding” value in the series on zebrafish larvae [3] (Example 2, wounded at 2 dpf) is “did not affect the glucose level”. The whole-body cortisol level result with zebrafish larvae [4] (5 dpf) was “did not show any side effects”. For the same compound, the “whole-body cortisol level upon wounding” value in the series on zebrafish larvae [4] (Example 2, wounded at 2 dpf, 5 dpf) was “minor effect on the cortisol level and on tissue regeneration”. For the same compound, the “cortisol effect upon wounding in presence of Gba2 inhibitor MZ31” value with zebrafish larvae [4] (Example 2, wounded, with MZ31) was “These latter effects were Gba2-dependent”.

As for `CC(C)=CCC[C@](C)(O)[C@H]1CC[C@]2(C)[C@@H]1[C@H](O)C[C@@H]1[C@@]3(C)CC[C@H](O)C(C)(C)[C@@H]3[C@@H](O)C[C@]12C` [PPT, Protopanaxatriol], the fkbp5 expression entry in the series on fkbp5 is reported as “did not increase the expression”. The pck1 expression result with pck1 was “did not increase the expression”. Further, the “GFP fluorescence intensity (Gr transactivation)” value in the series on gr is “none of the ginsenosides PPT, F1, Rh1, and Rg1 altered the fluorescence intensity”. The larval length result with zebrafish larvae [1] is reported as “minor effect on larval length”. The “tissue regeneration of tail fin” value with zebrafish larvae [2] is reported as “considerably inhibited the regeneration of the tail fin after wounding”. For the same compound, in the series with zebrafish larvae [3], the whole-body glucose level result was “did not affect the glucose level”. In the series on zebrafish larvae [4] (5 dpf), the whole-body cortisol level entry was “did decrease the cortisol concentration”.
